Laboratory results: patent publication US20170253607A1, “LONG-ACTING HIV PROTEASE INHIBITOR” (Shionogi & Co., Ltd., priority 2014, published 2017)
pIC50: −log10 of the molar value.

Molecular target: HIV-1 PR (Human immunodeficiency virus type 1 group M subtype B, UniProt P04585)
Assay: HIV-protease inhibitory activity assay (FRET peptide substrate)
Type: biochemical
Settings: Test Example 1
In short: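 HIV-1 PR (0.83 ng) preincubated with compounds 20 min at room temperature in 0.1 mol/L NaAc, 0.5 mol/L NaCl, 1 mmol/L EDTA, 1 mmol/L DTT, 0.05% Tween 20, pH 4.8. Cleavage of HiLyte Fluor 488/QXL 520 FRET peptide (2 μmol/L) read after 60 minutes at 485/535 nm; IC50 from four-parameter logistic fit.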

SMILES	pIC50
CC(C)CN(CC(O)C(Cc1ccc(NCc2ccccc2C(=O)Nc2sc3c(c2C(=O)O)CC(C)(C)CC3)cc1)NC(=O)OC1COC2OCCC12)S(=O)(=O)c1ccc2c(c1)OCO2 (stereo not drawn) [Compound I-854]	8.50
COc1ccc(S(=O)(=O)N(CC(C)C)CC(O)C(Cc2ccc(NCc3c(C)c(C)c(-c4sc5c(c4C(=O)O)CC(C)(C)CC5)c(C)c3C)cc2)NC(=O)OC2COC3(C)OCCC23)cc1 (stereo not drawn) [Compound I-535]	7.37
COc1ccc(S(=O)(=O)N(CC(C)C)CC(O)C(Cc2ccc(N(C)CCn3nc4c(c3C(=O)O)CC(C)(C)CC4)cc2)NC(=O)OC2COC3(C)OCCC23)cc1 (stereo not drawn) [Compound I-517]	8.59
COc1ccc(S(=O)(=O)N(CC(C)C)CC(O)C(Cc2ccc(N(C)Cc3cocc3-c3sc4c(c3C(=O)O)CC(C)(C)CC4)cc2)NC(=O)OC2COC3(C)OCCC23)cc1 (stereo not drawn) [Compound I-570]	8.73
COc1ccc(S(=O)(=O)N(CC(C)C)CC(O)C(Cc2ccc(N(C)CC3CCCC3c3sc4c(c3C(=O)O)CC(C)(C)CC4)cc2)NC(=O)OC2COC3(C)OCCC23)cc1 (stereo not drawn) [Compound I-470]	8.57
COc1ccc(S(=O)(=O)N(CC(C)C)CC(O)C(Cc2ccc(NCc3cc(F)cc(-c4sc5c(c4C(=O)O)CC(C)(C)CC5)c3)cc2)NC(=O)OC2COC3(C)OCCC23)cc1 (stereo not drawn) [Compound I-296]	8.72
COc1ccc(S(=O)(=O)N(CC(C)C)CC(O)C(Cc2ccc(NCc3c(C(=O)O)[nH]c4ccc(Cl)cc34)cc2)NC(=O)OC2COC3(C)OCCC23)cc1 (stereo not drawn) [Compound I-319]	8.68
CC1(C)CCc2sc(-c3ccc(CCCN(CC(O)C(Cc4ccccc4)NC(=O)OC4COC5(C)OCCC45)S(=O)(=O)c4ccc5ncsc5c4)cc3)c(C(=O)O)c2C1 (stereo not drawn) [Compound I-164]	8.68
COc1ccc(S(=O)(=O)N(CC(C)C)CC(O)C(Cc2ccc(OCC3CCN(c4ccc(-c5sc6c(c5C(=O)O)CC(C)(C)CC6)cc4)C3)cc2)NC(=O)OC2COC3(C)OCCC23)cc1 (stereo not drawn) [Compound I-894]	7.69
CC1(C)CCc2sc(-c3cccc(CCCN(C[C@@H](O)[C@H](Cc4ccccc4)NC(=O)O[C@H]4CO[C@@]5(C)OCC[C@@H]45)S(=O)(=O)c4ccc5ncsc5c4)c3)c(C(=O)O)c2C1 [Compound I-36]	8.73
COc1ccc(S(=O)(=O)N(CC(C)C)CC(O)C(Cc2ccc(NCc3ccccc3-n3nc4c(c3C(=O)O)CC3(CCCC3)CC4)cc2)NC(=O)OC2COC3(C)OCCC23)cc1 (stereo not drawn) [Compound I-38]	8.41
COc1ccc(S(=O)(=O)N(CC(C)C)CC(O)C(Cc2ccc(NCc3cc(-c4ccc(-c5ccccc5)cc4)ccc3-c3sc4c(c3C(=O)O)CC(C)(C)CC4)cc2)NC(=O)OC2COC3(C)OCCC23)cc1 (stereo not drawn) [Compound I-721]	8.65
COc1ccc(S(=O)(=O)N(CC(C)C)CC(O)C(Cc2ccc(NCc3ccccc3-c3ccc(Nc4sc5c(c4C(=O)O)CC(C)(C)CC5)nc3)cc2)NC(=O)OC2COC3(C)OCCC23)cc1 (stereo not drawn) [Compound I-775]	8.44
COc1ccc(S(=O)(=O)N(CC(C)C)CC(O)C(Cc2ccc(NCc3cc4ccccc4cc3NC(=O)c3sc4c(c3C(=O)O)CC(C)(C)CC4)cc2)NC(=O)OC2COC3(C)OCCC23)cc1 (stereo not drawn) [Compound I-612]	8.68
Cc1cc(OCCNc2nc3ccc(S(=O)(=O)N(CC(C)C)CC(O)C(Cc4ccccc4)NC(=O)OC4COC5(C)OCCC45)cc3s2)ccc1-c1sc2c(c1C(=O)O)CC(C)(C)CC2 (stereo not drawn) [Compound I-797]	9.07
COc1ccc(S(=O)(=O)N(CC(C)C)CC(O)C(Cc2ccc(NC3CCc4c(-c5sc6c(c5C(=O)O)CC(C)(C)CC6)cccc43)cc2)NC(=O)OC2COC3(C)OCCC23)cc1 (stereo not drawn) [Compound I-697]	8.54
COc1ccc(S(=O)(=O)N(CC(C)C)CC(O)C(Cc2ccc(N(Cc3nccs3)Cc3ccccc3-c3sc4c(c3C(=O)O)CC(C)(C)CC4)cc2)NC(=O)OC2COC3(C)OCCC23)cc1 (stereo not drawn) [Compound I-431]	8.43
COc1ccc(S(=O)(=O)N(CC(C)C)CC(O)C(Cc2ccc(OCc3ccccc3-n3nc4c(c3C(=O)O)Cc3ccccc3-4)cc2)NC(=O)OC2COC3(C)OCCC23)cc1 (stereo not drawn) [Compound I-143]	9.00
COc1ccc(S(=O)(=O)N(CC(C)C)CC(O)C(Cc2ccc(NCC3=C(c4sc5c(c4C(=O)O)CC(C)(C)CC5)CCC3)cc2)NC(=O)OC2COC3(C)OCCC23)cc1 (stereo not drawn) [Compound I-381]	8.33
COc1ccc(S(=O)(=O)N(CC(C)C)CC(O)C(Cc2ccc(OCC3CCCN3Cc3sc4c(c3C(=O)O)CC(C)(C)CC4)cc2)NC(=O)OC2COC3(C)OCCC23)cc1 (stereo not drawn) [Compound I-194]	8.79
COc1ccc(S(=O)(=O)N(CC(C)C)CC(O)C(Cc2ccc(N(C)Cc3ccc(Oc4ccccc4)cc3-c3sc4c(c3C(=O)O)CC(C)(C)CC4)cc2)NC(=O)OC2COC3(C)OCCC23)cc1 (stereo not drawn) [Compound I-696]	7.91
COc1ccc(S(=O)(=O)N(CC2CCCC2)CC(O)C(Cc2ccc(OCc3ccccc3-n3nc(C(=O)O)c4c3CCC(C(F)(F)F)C4)cc2)NC(=O)OC2COC3(C)OCCC23)cc1 (stereo not drawn) [Compound I-141]	8.76
COc1ccc(S(=O)(=O)N(CC(C)C)CC(O)C(Cc2ccc(N(CCCc3ccccc3)Cc3ccccc3-c3sc4c(c3C(=O)O)CC(C)(C)CC4)cc2)NC(=O)OC2COC3(C)OCCC23)cc1 (stereo not drawn) [Compound I-426]	8.09

SMILES	pIC50
CC(C)CN(CC(O)C(Cc1ccc(OCc2ccc3ccccc3c2C(=O)N(C)C)cc1)NC(=O)OC1COC2(C)OCCC12)S(=O)(=O)c1ccc2ncsc2c1 (stereo not drawn) [Compound I-163]	8.96
COc1ccc(S(=O)(=O)N(CC(C)C)CC(O)C(Cc2ccc(N(Cc3ccccc3)Cc3ccccc3-c3sc4c(c3C(=O)O)CC(C)(C)CC4)cc2)NC(=O)OC2COC3(C)OCCC23)cc1 (stereo not drawn) [Compound I-299]	7.78
COc1ccc(S(=O)(=O)N(CC(C)C)CC(O)C(Cc2ccc(OC3CC(N(C)c4ccccc4-c4sc5c(c4C(=O)O)CC(C)(C)CC5)C3)cc2)NC(=O)OC2COC3(C)OCCC23)cc1 (stereo not drawn) [Compound I-382]	8.14
COc1ccc(S(=O)(=O)N(CC(C)C)CC(O)C(Cc2ccc(OCC3CCCN(c4ccc(C#N)cc4-c4sc5c(c4C(=O)O)CC(C)(C)CC5)C3)cc2)NC(=O)OC2COC3(C)OCCC23)cc1 (stereo not drawn) [Compound I-327]	7.98
COc1ccc(S(=O)(=O)N(CC(C)C)CC(O)C(Cc2ccc(N(Cc3ccncc3)Cc3ccccc3-c3sc4c(c3C(=O)O)CC(C)(C)CC4)cc2)NC(=O)OC2COC3(C)OCCC23)cc1 (stereo not drawn) [Compound I-425]	8.58
COc1ccc(S(=O)(=O)N(CC(C)C)CC(O)C(Cc2ccc(OCC3CCN(c4cccc(-c5sc6c(c5C(=O)O)CC(C)(C)CC6)c4)C3)cc2)NC(=O)OC2COC3(C)OCCC23)cc1 (stereo not drawn) [Compound I-896]	7.78
COc1ccc(S(=O)(=O)N(CC(C)C)CC(O)C(Cc2ccc(NCc3cc4c(cc3-c3sc5c(c3C(=O)O)CC(C)(C)CC5)OCC(=O)N4C)cc2)NC(=O)OC2COC3(C)OCCC23)cc1 (stereo not drawn) [Compound I-759]	8.59
COc1ccc(S(=O)(=O)N(CC(C)C)CC(O)C(Cc2ccc(OCc3ccccc3-c3ccc4c(C(=O)O)c(-c5ccc(Cl)cc5C)sc4c3)cc2)NC(=O)OC2COC3(C)OCCC23)cc1 (stereo not drawn) [Compound I-73]	8.33
COc1ccc(S(=O)(=O)N(CC(C)C)CC(O)C(Cc2ccc(NCC3CCCC3c3sc4c(c3C(=O)O)CC(C)(C)CC4)cc2)NC(=O)OC2COC3(C)OCCC23)cc1 (stereo not drawn) [Compound I-670]	8.57
COc1ccc(S(=O)(=O)N(CC(C)C)CC(O)C(Cc2ccc(NCc3ccccc3-c3ccc4cc(C(=O)O)[nH]c4c3)cc2)NC(=O)OC2COC3(C)OCCC23)cc1 (stereo not drawn) [Compound I-503]	8.77
COc1ccc(S(=O)(=O)N(CC(C)C)CC(O)C(Cc2ccc(NCc3cc(C(=O)Nc4sc5c(c4C(=O)O)CC(C)(C)CC5)n(C)c3)cc2)NC(=O)OC2COC3(C)OCCC23)cc1 (stereo not drawn) [Compound I-445]	8.56
COc1ccc(S(=O)(=O)N(CC(C)C)CC(O)C(Cc2ccc(NCC3CCCCN3C(=O)c3sc4c(c3C(=O)O)CC(C)(C)CC4)cc2)NC(=O)OC2COC3(C)OCCC23)cc1 (stereo not drawn) [Compound I-605]	8.71
COc1ccc(S(=O)(=O)N(CC(C)C)CC(O)C(Cc2ccc(OCCNC(=O)C(=NO)c3cc(O)cc(Cl)c3)cc2)NC(=O)OC2COC3(C)OCCC23)cc1 (stereo not drawn) [Compound I-67]	8.73
COc1ccc(S(=O)(=O)N(CC(C)C)CC(O)C(Cc2ccc(OCc3ncsc3-c3ccc(-c4sc5c(c4C(=O)O)CC(C)(C)CC5)cc3)cc2)NC(=O)OC2COC3(C)OCCC23)cc1 (stereo not drawn) [Compound I-111]	8.83
CC(C)CN(CC(O)C(Cc1ccc(OCc2cc(C(=O)O)cc(-c3ccc(F)cc3F)c2)cc1)NC(=O)OC1COC2(C)OCCC12)S(=O)(=O)c1ccc2ncsc2c1 (stereo not drawn) [Compound I-60]	8.80
CC(C)CN(CC(O)C(Cc1ccc(OCc2ccccc2-c2ccccc2C(=O)N(C)C)cc1)NC(=O)OC1COC2(C)OCCC12)S(=O)(=O)c1ccc2ncsc2c1 (stereo not drawn) [Compound I-160]	9.02
COc1ccc(S(=O)(=O)N(CC(C)C)CC(O)C(Cc2ccc(N3CCC(C(=O)N(C)c4sc5c(c4C(=O)O)CC(C)(C)CC5)C3)cc2)NC(=O)OC2COC3OCCC23)cc1 (stereo not drawn) [Compound I-863]	8.59
COc1ccc(S(=O)(=O)N(CC(C)C)CC(O)C(Cc2ccc(NCc3cc(C(F)(F)F)ccc3-n3nc(C(=O)O)c4c3CCC(C)(C)C4)cc2)NC(=O)OC2COC3(C)OCCC23)cc1 (stereo not drawn) [Compound I-446]	8.67
COc1ccc(S(=O)(=O)N(CC(C)C)CC(O)C(Cc2ccc(N(CCc3ccccc3)Cc3ccccc3-c3sc4c(c3C(=O)O)CC(C)(C)CC4)cc2)NC(=O)OC2COC3(C)OCCC23)cc1 (stereo not drawn) [Compound I-421]	7.83
COc1ccc(S(=O)(=O)N(CC(C)C)CC(O)C(Cc2ccc(N3C(=O)c4cccc(-c5sc6c(c5C(=O)O)CC(C)(C)CC6)c4C3=O)cc2)NC(=O)OC2COC3(C)OCCC23)cc1 (stereo not drawn) [Compound I-620]	8.65
COc1ccc(S(=O)(=O)N(CC(C)C)CC(O)C(Cc2ccc(NCCOc3ccc(-c4sc5c(c4C(=O)O)CC(C)(C)CC5)c(C)c3)cc2)NC(=O)OC2COC3(C)OCCC23)cc1 (stereo not drawn) [Compound I-518]	8.25
COc1ccc(S(=O)(=O)N(CC(C)C)CC(O)C(Cc2ccc(NCc3ccc(-c4sc5c(c4C(=O)O)CC(C)(C)CC5)c(F)c3)cc2)NC(=O)OC2COC3(C)OCCC23)cc1 (stereo not drawn) [Compound I-291]	8.45
